Data set [1] can be described thus: Solubility at pH 5.4. Format: physicochemical. The note with it: buffer.
Data set [2] addresses T1, Corticotropin-releasing factor receptor 1 (Homo sapiens, UniProt P34998).
T1 sequence (P34998 whole entry): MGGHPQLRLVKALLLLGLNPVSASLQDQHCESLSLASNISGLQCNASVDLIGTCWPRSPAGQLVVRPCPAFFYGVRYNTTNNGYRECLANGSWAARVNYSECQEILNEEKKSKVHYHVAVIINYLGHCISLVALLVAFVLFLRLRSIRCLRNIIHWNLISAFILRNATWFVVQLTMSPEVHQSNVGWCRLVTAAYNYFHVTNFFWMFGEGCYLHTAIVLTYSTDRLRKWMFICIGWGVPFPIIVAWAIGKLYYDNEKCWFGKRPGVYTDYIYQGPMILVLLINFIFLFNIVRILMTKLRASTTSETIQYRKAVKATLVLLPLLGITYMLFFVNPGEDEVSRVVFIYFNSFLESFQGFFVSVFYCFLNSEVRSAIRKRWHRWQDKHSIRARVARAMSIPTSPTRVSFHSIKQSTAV
The data set can be described thus: Displacement of [125I]sauvagine from CRF1 receptor expressed in human IMR32 cells. It is filed as cell-based, IMR-32. (In general: Displacement assays read how much labelled ligand stays bound in the presence of the test substance.)

The nature of data set [3]: Tmax in po dosed rat. Format: ADME, organism-based. The conditions noted are these: in vivo.
Data set [4] is described as follows: Oral bioavailability of rat at 20 mg/kg. It is filed as ADME, organism-based. The note with it: in vivo.
Data set [5] in a line: Clearance in po dosed rat. It is filed as ADME, organism-based. The conditions noted are these: in vivo.
Data set [6] in a line: Cmax in po dosed rat. Format: ADME, organism-based. Further details: route oral. The conditions noted are these: in vivo.
Data set [7] in a line: Half life in rat liver microsomes. It is filed as ADME, Microsome.
Data set [8] in a line: Half life in po dosed rat. It is filed as ADME, organism-based. The note with it: in vivo.
The next data set deals with Rattus norvegicus. In words: Volume of distribution in po dosed rat. It is filed as ADME, organism-based. The note with it: in vivo.
The nature of data set [9]: Partition coefficient, log P of the compound. The conditions noted are these: octanol/water. It is filed as physicochemical.

Values after ≈ are worked out from the molar mass of the structure shown.

The results in this text go back to ChEMBL document CHEMBL1141465, “The design, synthesis and structure-activity relationships of 1-aryl-4-aminoalkylisoquinolines: a novel series of CRF-1 receptor antagonists” (Bioorg Med Chem Lett, 2008).

For orientation: solubility means the dissolved amount per volume that the medium holds. Read a high solubility as a readily soluble substance. A word on the Ki: it is the equilibrium dissociation constant of an inhibitor or competing ligand from its target. Low readings indicate a stronger hold on the target, high ones a looser hold on the target. One may read the Tmax as the time at which the peak concentration occurs. For orientation: bioavailability means dose-corrected exposure relative to a reference, in per cent. A low value points to poor availability. A word on the CL/F: it is the apparent clearance, not corrected for the fraction that reaches the circulation. As a reminder, the Cmax is the maximum level reached in the sampled fluid or tissue. By half-life is commonly meant the time needed for the level to fall by half in the phase considered. Higher therefore signals slow decline. The logP is the decadic logarithm of the partition coefficient of the neutral form, usually between octanol and water.

In data set [1], `COc1cc(C)cc(C)c1-c1nc(C)c(NCCN2CCCC2)c2ccccc12` had a solubility of 103 µg/mL (≈ 264 µM). The compound also came in with a Ki in [2] of over 10000 nM.

Compound `CCCN(CCn1ccnc1)c1c(C)nc(-c2c(C)cc(C)cc2OC)c2ccccc12` displayed a solubility in data set [1] of 107 µg/mL (≈ 250 µM). The affinity in data set [2], expressed as Ki, was 1060 nM.

Regarding `CCCN(CCC)c1c(C)nc(-c2c(C)cc(C)cc2OCCN(C)C)c2ccccc12`, the concentration in solution in [1] (solubility) came to 112 µg/mL (≈ 258 µM). The same compound came in with an inhibitory constant (Ki) in [2] of 265 nM.

In data set [1], `CCCN(CCC)c1c(C)nc(-c2c(C)cc(C)cc2OCCN2CCCCC2)c2ccccc12` yielded a solubility of 27 µg/mL (≈ 57 µM). Besides, in data set [2], the affinity corresponds to a Ki of 120 nM.

Take `CCCN(CCC)c1c(C)nc(-c2c(C)cc(C)cc2OCCN2CCN(C)CC2)c2ccccc12`: the concentration in solution in data set [1] (solubility) was 135 µg/mL (≈ 276 µM). For the same compound, the affinity in [2], expressed as Ki, was 524 nM.

In the case of `CCCN(CCC)c1c(C)nc(-c2c(C)cc(C)cc2OCCN2CCC(O)CC2)c2ccccc12`, the solubility in data set [1] was 125 µg/mL (≈ 255 µM). Besides, the Ki in data set [2] stood at 41 nM.

`CCCN(CCC)c1c(C)nc(-c2c(C)cc(C)cc2OCCN2CCCC(O)C2)c2ccccc12` (stereo unspecified): the concentration in solution in [1] (solubility) was 131 µg/mL (≈ 268 µM). Moreover, in [2], the Ki is 32 nM.

`CCCN(CCC)c1c(C)nc(-c2ccc(Cl)cc2Cl)c2ccccc12` showed a Ki in data set [2] of 103 nM.

In data set [2], `CCCN(CCC)c1c(C)nc(-c2ccccc2)c2ccccc12` returned an inhibition constant (Ki) of over 10000 nM.

Compound `CCCN(CCC)c1c(C)nc(-c2cccc(Cl)c2)c2ccccc12` came in with a Ki in [2] of over 10000 nM.

Compound `CCCN(CCC)c1c(C)nc(-c2ccc(Cl)cc2)c2ccccc12` had a Ki in data set [2] of 962 nM.

As for `CCCN(CCC)c1c(C)nc(-c2ccc(Cl)cc2C)c2ccccc12`, the Ki in data set [2] was determined as 21 nM.

In the case of `CCCN(CCC)c1c(C)nc(-c2ccc(OC)cc2CC)c2ccccc12`, the affinity in data set [2] corresponds to a Ki of 36 nM.

In data set [2], `CCCN(CCC)c1c(C)nc(-c2ccc(OC)cc2OC)c2ccccc12` had a Ki of 42 nM.

Regarding `CCCN(CCC)c1c(C)nc(-c2ccc(OC(F)F)cc2OC)c2ccccc12`, the inhibitory constant (Ki) in [2] turned out to be 17 nM.

Take `CCCN(CCC)c1c(C)nc(-c2c(OC)cc(C(F)(F)F)cc2C(F)(F)F)c2ccccc12`: the Tmax in [3] turned out to be 42 min. Further, the bioavailability in data set [4] came out at 4.8%. This compound had a solubility in data set [1] of under 0.5 µg/mL. The same compound showed a CL/F in data set [5] of 14.5 mL/min/kg. For the same compound, the Cmax in [6] came out at 387 ng/mL. The half-life in [7] is 36 min; in data set [8], 324 min. In the data set on Rattus norvegicus, the Vd amounted to 13 L/kg. This compound also gave a Ki in data set [2] of 8 nM. The logP in [9] was found to be 5.7.

As for `CCCN(CCC)c1c(C)nc(-c2c(C)cc(OC)cc2C)c2ccccc12`, the inhibition constant Ki in [2] amounted to 26 nM.

For the compound `CCCN(CCC)c1cnc(-c2c(C)cc(C)cc2OC)c2ccccc12`, the Ki in data set [2] amounted to 49 nM.

Compound `CCCN(CCC)c1c(CC)nc(-c2c(C)cc(C)cc2OC)c2ccccc12` showed a Ki in data set [2] of 9 nM.

In data set [1], `COc1cc(C)cc(C)c1-c1nc(C)c(N(CC2CC2)CC2CC2)c2ccccc12` came in with a solubility of under 0.5 µg/mL. Affinity in [2] was put at a Ki of 7 nM.

As for `CCCNc1c(C)nc(-c2c(C)cc(C)cc2OC)c2ccccc12`, the affinity in [2] corresponds to a Ki of 165 nM.

In [2], `CCCN(CCC)c1c(C)nc(-c2ccccc2Cl)c2ccccc12` yielded an inhibition constant Ki of 1680 nM.

Take `CCCN(CCC)c1c(C)nc(-c2ccc(OC)cc2C)c2ccccc12`: the affinity in [2] corresponds to a Ki of 28 nM.

In data set [1], `CCCN(CC1CC1)c1c(C)nc(-c2c(C)cc(C)cc2OC)c2ccccc12` displayed a solubility of under 0.5 µg/mL. In data set [2], this compound returned an inhibition constant (Ki) of 5 nM.

Consider `CCCN(CCN1CCCC1)c1c(C)nc(-c2c(C)cc(C)cc2OC)c2ccccc12`, for which, in data set [1], the solubility was found to be 120 µg/mL (≈ 278 µM). Besides, the affinity in [2] corresponds to a Ki of 215 nM.

Regarding `CCCN(CCC)c1c(C)nc(-c2c(C)cc(C)cc2OCCN2CCCC2)c2ccccc12`, the solubility in data set [1] came to 105 µg/mL (≈ 228 µM). Further, the Ki in data set [2] came to 173 nM.

In data set [2], `CCCN(CCC)c1c(C)nc(-c2c(C)cc(C)cc2OCCN2CCOCC2)c2ccccc12` came in with a Ki of 30 nM.

Consider `CCCN(CCC)c1c(C)nc(-c2c(C)cc(C)cc2OC)c2ccccc12`, for which the solubility in [1] is under 0.5 µg/mL. The half-life in data set [7] turned out to be 4 min. The same compound registered a Ki in data set [2] of 6 nM. This compound also came in with a logP in data set [9] of 4.6.
